Measured values: publication PMC5656322, “BAK1 is involved in AtRALF1-induced inhibition of root cell expansion” (PLoS Genetics, 2017)
“Also recorded” adds a separate entry of the source. Where no end group is shown, it is not given here.

Key:
[1] = test system: Arabidopsis seedlings, primary root; test: Root growth inhibition assay, vertical plates; assay type: in vivo, Arabidopsis thaliana
Procedure: (A) and (B) Arabidopsis seedlings (2 days old) were treated with 10 μM AtRALF1 or water (H20) for 2 days. The values are the mean ± SD of at least 25 seedlings. Triple asterisks indicate P < 0.01 (Student’s t test); ns, not significant. (C) Four-day-old seedlings were transferred to media containing different concentrations of AtRALF1, and the primary root length was measured after 8 days of treatment. The data represent the mean value ± SD of 30 seedlings. […] Representative Arabidopsis seedlings after 8 days of treatment with AtRALF1 are shown below. Seedlings were arranged on plates after the treatment for imaging. Scale bars, 1 cm. (D) Two-day-old seedlings were treated with 10 μM AtRALF1 or water for 2 days, and root cell length was measured after 2 days of treatment. Cells from the root endodermis in the differentiation zone were measured. The values are the mean ± SD of approximately 150 cells. Triple asterisks indicate P < 0.01 (Student’s t test); ns, not significant.
Aliquots of 1 ml of medium containing seeds were distributed into 24-well plates. The peptides (10 μM) were added after 2 days, and the root length was measured 2 days after treatment. To maximize root growth, the seeds were germinated in vertical plates. […] The root length was measured 8 days after treatment unless stated otherwise. Control plants were grown under identical conditions in a peptide-free medium. Quantitative data were obtained as previously described. […] The data from one representative experiment are shown. For cell length measurements, AtRALF1 peptide (10 μM) was added after 2 days of germination, and the cell length was measured after 2 days of treatment. The cell wall was stained with a 1 mg ml^-1 propidium iodide solution (Sigma) in the dark for 15 min and washed twice with water. Cells of the endodermis of the root differentiation zone were imaged and measured using confocal microscopy (Olympus FV1000). Approximately 30 plants from each genetic background and at least 5 cells per root were measured. The wavelengths for excitation and emission were 555 and 655 nm, respectively. Image processing was completed using the Olympus FluoView software.
Supplementary file pgen.1007053.s004.pdf: S4 Fig Analyses of root growth of Arabidopsis seedlings treated with AtRALF1 peptide for 8 days and evaluated daily. Four-day-old seedlings were transferred to media containing different concentrations of AtRALF1, and the primary root length was measured daily during the 8 days of treatment. Genotypes Wt, bak1-1, bak1-3 and bak1-4 are indicated on top of each series of graphics. The seedlings were treated with 0, 0.5, 1, 5 and 10 μM AtRALF1. The data represent the mean values ± SD of 30 seedlings. Double and triple asterisks indicate P < 0.05 and P <0.01, respectively (Student’s t test); ns, not significant. (PDF) Click here for additional data file.
Four-day-old seedlings were transferred to medium containing 10 μM AtRALF1, and the primary root length was measured after 8 days of treatment. The data represent the mean value ± SD of 20 seedlings. Triple asterisks indicate P < 0.01 (Student’s t test); ns, not significant. Representative Arabidopsis seedlings after 8 days of treatment with AtRALF1 are shown. The seedlings were arranged on plates after the treatment for imaging. Scale bars, 1 cm. (PDF) Click here for additional data file.
Four-day-old seedlings were transferred to medium containing 0.1 μM BAP, and the primary root length was measured after 8 days of treatment. The data represent the mean value ± SD of 10 seedlings.

[2] = test system: microsomal fractions from the roots of Arabidopsis; test: Binding assay with acridinium-labeled AtRALF1, microsomal fractions; set-up: species or system Arabidopsis thaliana
Procedure: (A) Whole seedlings (5 days old) were treated for 15 min with acriAtRALF1 (acriR1), acriR1 and an excess of unlabeled AtRALF34 (R34), RALF1(9–49) [(R-9-49)], or AtRALF1 (R1), as indicated. The values are the mean ± SD of two measurements (5 seedlings each). (B) Microsomal fractions from wild-type and bak1 mutants were incubated for 15 min with acriAtRALF1 (acriR1), with acriR1 and an excess of unlabeled RALF1(9–49) [(R-9-49)], or with AtRALF1 (R1), as indicated. The values are the mean ± SD of two measurements. The proportions of labeled: unlabeled proteins are shown in parentheses. Single and triple asterisks indicate P < 0.1 and P < 0.01 (Student’s t test).
Arabidopsis seedlings were grown for 5 days on vertical plates. Roots were homogenized in extraction buffer [300 mM sucrose, 100 mM Tris-HCl pH 7.5, 25 mM EDTA, 25 mM NaF, 1 mM Na2MoO4, 1 mM PMSF and protease inhibitor cocktail (Roche), adjusted to pH 6.2], and the homogenate was spun at 2,000 x g for 10 min at 4 °C. The supernatant was recovered and centrifuged at 100,000 x g for 50 min at 4 °C to precipitate the microsomal pellet. The pellet was resuspended in the extraction buffer plus 0.5% Triton-X. Seedlings or microsomal fractions were placed in 200 μl of medium and incubated with 7 nM acridinium-labeled peptide (acriAtRALF1 or acriAtRALF34) and different concentrations of AtRALF1, AtRALF34 or RALF1(9–49) for 15–20 min at 4 °C on a shaker. After incubation, the seedlings or microsomal fractions were washed three times with the same medium. Unless indicated otherwise, five entire seedlings and approximately 10 ng of microsomal fractions were used per treatment. The resulting luminescence emissions from the acridinium were measured using a microplate reader (Biotec ELx 800) at 2 s after injecting 50 μl of a solution containing 20 mM H2O2 in 0.1 M NaOH. These experiments were repeated at least three times using independent biological replicates. Duplicates were used for each concentration or treatment. The data shown are from one representative experiment.

[3] = test system: BAK1 gene; settings: Arabidopsis plants; ref [10]; cited from earlier work
From the text: It has been previously shown through microarray experiments that the treatment of Arabidopsis plants with AtRALF1 causes BAK1 gene induction by approximately 1.56-fold. Our data are consistent with that previous observation and add a new gene to the list of AtRALF1-inducible genes. […] The fact that AtRALF1 peptide and BL treatment both induce BAK1 gene expression provides further evidence that BAK1 ...

Substance: AtRALF1: root-specific RALF isoform in Arabidopsis; recombinant peptide hormone produced in E. coli (ATTKYISYQSLKRNSVPCSRRGASYYNCQNGAQANPYSRGCSKIARCRS; ends and bridges not checked; cysteine pairing not given here)
- sensitivity of root growth ([1]; 8 days of treatment, bak1-1, bak1-3, bak1-4 mutants): insensitive to the AtRALF1 peptide
- daily root growth ([1]; bak1-mutant lines, 8-day treatment, 0-10 μM): No differences were observed in the daily root growth
- highest concentration to which bak1 mutants are insensitive ([1]; bak1 mutants, 8 days): ≥ 10 µM
- sensitivity of root growth ([1]; bak1 mutants, side by side with fer4, 8 days): insensitive to any tested concentrations of the peptide
- primary root growth inhibition ([1]; bak7 mutant, 10 μM, 8 days): inhibited primary root growth
- sensitivity of root growth ([1]; fer4 mutant, side by side with bak1 mutants, 8 days): conditional insensitivity to AtRALF1 treatment; also recorded: insensitive to AtRALF1 peptide in low concentrations only
- dose with significant differences in root growth by the third day of treatment ([1]; wild-type, 0.5-10 μM tested, P < 0.05 / 0.01): ≥ 1 µM
- share of AtRALF1 binding due to BAK1 ([2]; microsomal fractions from roots): approximately 15%
- acriAtRALF1 binding reduced to, of the total ([2]; microsomal fractions of wild-type and bak1, 10-fold excess of AtRALF1): approximately 30%
- acriAtRALF1 binding reduced to, of the total binding ([2]; microsomal fractions of wild-type and bak1, 100- or 500-fold excess of AtRALF1): approximately 60%
- BAK1 gene induction (microarray) [3]: approximately 1.56 -fold
